Measurements: US11752133B2, “Use of bromophenol-pyrazoline compounds in the treatment of porcine coronavirus diseases” (priority 2020, dated 2023)
Values joined by “and” are separate entries in the source; they are usually repeats but may differ in a detail not shown here. Identical values can stand only once.

What was measured:
[1] = tested on: porcine epidemic diarrhea virus; assay: Clinical trial in diseased pigs with epidemic diarrhea (PEDV infection); assay type: in vivo, pig; conditions: for Diarrhea Scoring Index: individual pigs, 0 formed manure, 1 thick not formed, 2 manure and water separation, 3 watery manure; for Effective rate / Number of deaths / Mortality rate: diseased pigs within 10 days of age; for Effective rate: 72 h, based on diarrhea scoring index; for Number of deaths: 72 h observation, treatment twice a day; for Mortality rate: piglet deaths at end of 72 h test
Experimental: Through the PCR detection of diseased pig tissues at Zhucheng Pig Farm in November 2020, the type of viral infection was determined.
Diseased pigs with epidemic diarrhea within 10 days of age were selected and randomly divided into 4 groups, i.e. untreated group, traditional Chinese medicine treatment group, compound 4 treatment group and lgY antibody treatment group, respectively. The traditional Chinese medicine treatment group was drenched with a compound decoction consisting of dandelion, Chinese violet, coptis, isatis root, etc., twice a day for 3 consecutive days. Compound 4 was taken at a dose of 25 mg/pig after being dissolved in a dextrose solution, twice a day. The lgY antibody treatment group was fed with chicken egg antibodies (lgY), twice a day. The untreated group, the traditional Chinese medicine treatment group and the lgY antibody treatment group were respectively drenched with the same dose of the glucose solution as the compound 4 treatment group. The pigs were breast-fed during treatment.
During the clinical treatment of the diseased pigs with epidemic diarrhea, the diarrhea indexes of the diseased pigs in the untreated group (6 pigs), the compound 4 treatment group (8 pigs) and the lgY antibody treatment group (6 pigs) were scored through sampling.

[2] = tested on: porcine epidemic diarrhea virus (PEDV); assay: Inhibition of PEDV replication in infected Vero E6 cells (vRNA in supernatant by qRT-PCR); assay type: cell-based; conditions: 10 μM and 2 μM, MOI 0.05, 24 h, FIG. 1
Experimental: This Example evaluated whether bromophenol-pyrazoline compounds can inhibit replication of porcine coronavirus in Vero E6 cells infected with clinically isolated strains of porcine epidemic diarrhea virus (PEDV).
(§1) Specific operation: pre-seeded Vero E6 cells (5×10^4 cells/well) were respectively pretreated for 1 h with different concentrations of bromophenol-pyrazoline compounds to be tested (2 μM and 10 μM), and then infected with porcine coronavirus (PEDV; MOI: 0.05) for 2 h. Then, a virus-compound mixture was removed, and the cells were further cultured with a fresh medium containing the bromophenol-pyrazoline compound. After 24 hours, a cell supernatant was collected, and vRNA in the supernatant was analyzed by qRT-PCR. The treatment without a bromophenol-pyrazoline compound was used as a control.

[3] = tested on: porcine transmissible gastroenteritis virus (TGEV); assay: Inhibition of TGEV replication in infected Vero E6 cells (vRNA in supernatant by qRT-PCR); assay type: cell-based; conditions: 10 μM and 2 μM, MOI 0.05, 24 h, FIG. 2
Experimental: This Example evaluated whether bromophenol-pyrazoline compounds can inhibit replication of porcine coronavirus in Vero E6 cells infected with clinically isolated strains of porcine transmissible gastroenteritis virus (TGEV).
as §1, with “(TGEV;” for “(PEDV;”

**Q.** With `CC(C)(C)c1ccc(Oc2ccc(C3=NN(C(N)=S)C(c4ccc(O)c(O)c4)C3)cc2)cc1` (centres unmarked) [Compound 4] as the compound, how does the alleviation of diarrhea ([1]; 8 scored diseased pigs, 24 h after oral administration) read?
**A.** The alleviation of diarrhea was “significantly alleviated diarrhea”.

**Q.** And the curative ratio ([1]; 8 scored diseased pigs, 72 h after oral administration)?
**A.** The curative ratio was 100%.

**Q.** And the “Diarrhea Scoring Index” value ([1]; 12 h after administration)?
**A.** The value was 3 (7×) and 2.

**Q.** And the “Diarrhea Scoring Index” value ([1]; 24 h after administration)?
**A.** Its value is 2 (7×) and 1.

**Q.** What about the “Diarrhea Scoring Index” value ([1]; 48 h after administration) of the same compound?
**A.** Its value is 0 (5×) and 1 (2×) and 2.

**Q.** What about the “Diarrhea Scoring Index” value ([1]; 72 h after administration) of the same compound?
**A.** The value was 0.

**Q.** What about the Effective rate [1] of the same compound?
**A.** The Effective rate was 100%.

**Q.** And the Effective rate ([1]; listed as compound 4)?
**A.** Its Effective rate is 100%.

**Q.** And the Number of deaths [1]?
**A.** The Number of deaths was 0.

**Q.** And the Number of deaths ([1]; listed as compound 4)?
**A.** Its Number of deaths is “no pig died”.

**Q.** What about the Mortality rate [1] of the same compound?
**A.** The Mortality rate was 0%.

**Q.** What about the Mortality rate ([1]; listed as compound 4) of the same compound?
**A.** Its Mortality rate is 0%.

**Q.** And the “inhibitory activity against replication of PEDV (viral RNA)” value [2]?
**A.** Its value is “strongest inhibitory activity”.

**Q.** And the “inhibitory activity against replication of TGEV (viral RNA)” value [3]?
**A.** The value was “strongest inhibitory activity”.
